Holding throughout (assay): Biochemical inhibition assay, fluorogenic substrate FSR-AMC
Assay [1] has as its target Factor Xa (Homo sapiens, UniProt P00742).
Assay [2] concerns the target KLK6 (Homo sapiens, UniProt Q92876).
Assay [3] deals with Thrombin (Homo sapiens, UniProt P00734).
The target in assay [4] is Trypsin (Homo sapiens, UniProt P07477).
Where [5] appears, read: read-out: Factor Xa IC50, Factor Xa 4 nM, 30 min incubation with inhibitor, FSR-AMC 20 µM, Tris pH 7.5.
The mark [6] stands for this setting: read-out: KLK6 IC50, KLK6 5 nM (produced in insect cells), 30 min incubation with inhibitor, FSR-AMC 20 µM, Tris pH 7.5.
Where [7] appears, read: read-out: Thrombin IC50, Thrombin 9.8·10^-5 NIH unit/mL, 30 min incubation with inhibitor, FSR-AMC 20 µM, Tris pH 7.5.
The mark [8] stands for this setting: read-out: Trypsin IC50, Trypsin 0.88 ng/mL, 30 min incubation with inhibitor, FSR-AMC 20 µM, Tris pH 7.5.

Like-named read-outs stand apart in the source and are kept apart here.

Sequence of Factor Xa (P00742 235-488 limits assumed): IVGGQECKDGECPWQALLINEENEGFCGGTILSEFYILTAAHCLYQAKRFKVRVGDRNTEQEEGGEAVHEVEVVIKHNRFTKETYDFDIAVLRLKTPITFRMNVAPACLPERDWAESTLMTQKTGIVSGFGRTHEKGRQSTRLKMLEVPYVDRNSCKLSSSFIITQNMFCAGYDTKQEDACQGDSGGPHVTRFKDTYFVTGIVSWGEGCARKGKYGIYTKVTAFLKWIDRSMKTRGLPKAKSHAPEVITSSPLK
Sequence of Factor Xa (P00742 41-179 partner limits assumed): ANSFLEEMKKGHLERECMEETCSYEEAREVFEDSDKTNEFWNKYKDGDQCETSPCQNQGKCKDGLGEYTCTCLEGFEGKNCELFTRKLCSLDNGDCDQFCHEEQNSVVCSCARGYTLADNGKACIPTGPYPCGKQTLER

As to `Cc1nn(-c2ccccc2)c(C)c1NC(=O)C(C)OC(=O)Cn1c(C)cc2ccccc21` (racemic) [compound 37], the half-maximal inhibitory concentration (IC50) in assay [1] (setting [5]) is more than 50 µM; in assay [2] (setting [6]), 1.48 µM; in assay [3] (setting [7]) it was more than 50 µM; in assay [4] (setting [8]), more than 50 µM.

Turning to `Cc1nn(-c2ccccc2)c(C)c1NC(=O)COC(=O)Cn1c(C)cc2ccccc21` [compound 1, 2-((3,5-dimethyl-1-phenyl-1H-pyrazol-4-yl)amino)-2-oxoethyl 2-(2-methyl-H-indol-1-yl)acetate], the IC50 in assay [1] was more than 200 µM; in assay [3], more than 200 µM; in assay [4], 39.4 µM.

For the compound `Cc1nn(C)c(C)c1NC(=O)COC(=O)Cn1c(C)cc2ccccc21` [compound 2, 2-oxo-2-((1,3,5-trimethyl-1H-pyrazol-4-yl)amino)ethyl 2-(2-methyl-1H-indol-1-yl)acetate], the IC50 in assay [1] is more than 200 µM; in assay [2], 1.25 µM; in assay [3], more than 200 µM; in assay [4], 71.5 µM.

Consider `Cc1cccc(-n2nc(C)c(NC(=O)COC(=O)Cn3c(C)cc4ccccc43)c2C)c1` [compound 3, 2-((3,5-dimethyl-1-(m-tolyl)-1H-pyrazol-4-yl)amino)-2-oxoethyl 2-(2-methyl-1H-indol-1-yl)acetate], for which the half-maximal inhibitory concentration (IC50) in assay [1] is more than 200 µM; in assay [2], 0.371 µM; in assay [3] it was more than 200 µM; in assay [4], 65.7 µM.

As to `Cc1nn(-c2ccc(C(F)(F)F)cc2)c(C)c1NC(=O)COC(=O)Cn1c(C)cc2ccccc21` [compound 4, 2-((3,5-dimethyl-1-(4-(trifluoromethyl)phenyl)-1H-pyrazol-4-yl)amino)-2-oxoethyl 2-(2-methyl-1H-indol-1-yl)acetate], the IC50 in assay [1] is more than 200 µM; in assay [2], 2.89 µM; in assay [3] it was more than 200 µM; in assay [4] it was more than 200 µM.

Take `Cc1nn(-c2ccccc2[N+](=O)[O-])c(C)c1NC(=O)COC(=O)Cn1c(C)cc2ccccc21` [compound 5, 2-((3,5-dimethyl-1-(2-nitrophenyl)-1H-pyrazol-4-yl)amino)-2-oxoethyl 2-(2-methyl-1H-indol-1-yl)acetate]: the half-inhibitory concentration (IC50) in assay [1] was 50 µM; in assay [2], 0.172 µM; in assay [3] it was more than 200 µM; in assay [4], 51 µM.

As to `Cc1nn(-c2ccc(C#N)cc2)c(C)c1NC(=O)COC(=O)Cn1c(C)cc2ccccc21` [compound 6, 2-((1-(4-cyanophenyl)-3,5-dimethyl-1H-pyrazol-4-yl)amino)-2-oxoethyl 2-(2-methyl-1H-indol-1-yl)acetate], the IC50 in assay [1] is more than 200 µM; in assay [2], 0.439 µM; in assay [3], more than 200 µM; in assay [4], more than 200 µM.

With `COc1ccc(Cn2nc(C)c(NC(=O)COC(=O)Cn3c(C)cc4ccccc43)c2C)cc1` [compound 7, 2-((1-(4-methoxybenzyl)-3,5-dimethyl-1H-pyrazol-4-yl)amino)-2-oxoethyl 2-(2-methyl-1H-indol-1-yl)acetate], the IC50 was more than 200 µM in assay [1], 0.598 µM in assay [2], more than 200 µM in assay [3] and more than 200 µM in assay [4].

Take `Cc1nn(-c2ccccc2C(F)(F)F)c(C)c1NC(=O)COC(=O)Cn1c(C)cc2ccccc21` [compound 8, 2-((3,5-dimethyl-1-(2-(trifluoromethyl)phenyl)-1H-pyrazol-4-yl)amino)-2-oxoethyl 2-(2-methyl-1H-indol-1-yl)acetate]: the concentration for half-maximal inhibition (IC50) in assay [1] is 139 µM; in assay [2], 0.258 µM; in assay [3], more than 200 µM; in assay [4] it was 126 µM.

`Cc1ccc(-n2nc(C)c(NC(=O)COC(=O)Cn3c(C)cc4ccccc43)c2C)cc1` [compound 9, 2-((3,5-dimethyl-1-(p-tolyl)-1H-pyrazol-4-yl)amino)-2-oxoethyl 2-(2-methyl-1H-indol-1-yl)acetate]: the concentration for half-maximal inhibition (IC50) was more than 200 µM in assay [1], 0.267 µM in assay [2], 197 µM in assay [3] and 67.1 µM in assay [4].

For `Cc1nn(-c2ccc([N+](=O)[O-])cc2)c(C)c1NC(=O)COC(=O)Cn1c(C)cc2ccccc21` [compound 10, 2-((3,5-dimethyl-1-(4-nitrophenyl)-1H-pyrazol-4-yl)amino)-2-oxoethyl 2-(2-methyl-1H-indol-1-yl)acetate], the concentration for half-maximal inhibition (IC50) was more than 200 µM in assay [1], 0.994 µM in assay [2], more than 200 µM in assay [3] and more than 200 µM in assay [4].

As for `Cc1nn(-c2ccccc2)c(C)c1NC(=O)COC(=O)Cn1ccc2ccccc21` [compound 11, 2-((3,5-dimethyl-1-phenyl-1H-pyrazol-4-yl)amino)-2-oxoethyl 2-(1H-indol-1-yl)acetate], the IC50 in assay [1] is more than 200 µM; in assay [2], 14.5 µM; in assay [3], more than 200 µM; in assay [4], more than 200 µM.

For the compound `Cc1nn(-c2ccccc2)c(C)c1NC(=O)COC(=O)Cc1c[nH]c2ccccc12` [compound 12, 2-((3,5-dimethyl-1-phenyl-1H-pyrazol-4-yl)amino)-2-oxoethyl 2-(1H-indol-3-yl)acetate], the figures for the IC50 in assay [1], in assay [3] and in assay [4] were 135 µM, more than 200 µM and 139 µM, respectively.

Take `Cc1ccc(-n2nc(C)c(NC(=O)COC(=O)Cc3c[nH]c4ccccc34)c2C)cc1` [compound 13, 2-((3,5-dimethyl-1-(p-tolyl)-1H-pyrazol-4-yl)amino)-2-oxoethyl 2-(1H-indol-3-yl)acetate]: the IC50 was 162 µM in assay [1], 6.47 µM in assay [2], more than 200 µM in assay [3] and 133 µM in assay [4].

In the case of `Cc1nn(-c2ccccc2)c(C)c1NC(=O)COC(=O)Cn1cc(C)c2ccccc21` [compound 14, 2-((3,5-dimethyl-1-phenyl-1H-pyrazol-4-yl)amino)-2-oxoethyl 2-(3-methyl-1H-indol-1-yl)acetate], the IC50 is more than 200 µM in assay [1], 16.2 µM in assay [2], more than 200 µM in assay [3] and more than 200 µM in assay [4].

As to `Cc1nn(-c2ccccc2)c(C)c1NC(=O)COC(=O)Cn1c(C)c(C)c2ccccc21` [compound 15], the IC50 in assay [1] (setting [5]) is more than 200 µM; in assay [2] (setting [6]), 4.72 µM; in assay [3] (setting [7]) it was more than 200 µM; in assay [4] (setting [8]), 144 µM.

Turning to `Cc1nn(-c2ccccc2)c(C)c1NC(=O)COC(=O)Cn1c(C(F)(F)F)cc2ccccc21` [compound 16], the half-maximal inhibitory concentration (IC50) in assay [1] (setting [5]) is more than 200 µM; in assay [2] (setting [6]), 0.158 µM; in assay [3] (setting [7]), more than 200 µM; in assay [4] (setting [8]), more than 200 µM.

Consider `Cc1ccccc1NC(=O)COC(=O)Cn1c(C)cc2ccccc21` [compound 26], for which the IC50 in assay [1] (setting [5]), in assay [3] (setting [7]) and in assay [4] (setting [8]) was more than 50 µM in each case.

For the compound `Cc1nn(-c2ccccc2)c(C)c1NC(=O)COC(=O)Cn1c(C)cc2cc(Cl)ccc21` [compound 30], the IC50 in assay [1] (setting [5]), in assay [3] (setting [7]) and in assay [4] (setting [8]) was more than 50 µM each time.

For the compound `Cc1nn(-c2ccccc2)c(C)c1NC(=O)COC(=O)Cc1c(C)[nH]c2ccccc12` [compound 38], the IC50 was more than 50 µM in assay [1] (setting [5]), more than 50 µM in assay [3] (setting [7]) and 27.4 µM in assay [4] (setting [8]).

As to `Cc1nn(-c2ccccc2)c(C)c1NC(=O)C1(OC(=O)Cn2c(C)cc3ccccc32)CC1` [compound 40], the IC50 in assay [1] (setting [5]), in assay [3] (setting [7]) and in assay [4] (setting [8]) was more than 50 µM in each case.

As for `Cc1nn(-c2ccccc2)c(C)c1NC(=O)COC(=O)Cc1cccc2ccccc12` [compound 42], the IC50 in assay [3] (setting [7]) and in assay [4] (setting [8]) was more than 50 µM in each case.

On to `Cc1nn(-c2ccccc2)c(C)c1NC(=O)COC(=O)Cc1ccccc1` [compound 43], for which the half-maximal inhibitory concentration (IC50) in assay [3] (setting [7]) and in assay [4] (setting [8]) was more than 50 µM in each case.

Regarding `Cc1nn(-c2ccccc2)c(C)c1NC(=O)COC(=O)Cc1ccc(N)cc1` [compound 44], the IC50 is 12.2 µM in assay [2] (setting [6]), more than 50 µM in assay [3] (setting [7]) and more than 50 µM in assay [4] (setting [8]).

As to `Cc1nn(-c2ccccc2)c(C)c1NC(=O)COC(=O)Cc1ccccc1Cl` [compound 45], the values for the IC50 in assay [2] (setting [6]), in assay [3] (setting [7]) and in assay [4] (setting [8]) were 1.36 µM, more than 50 µM and more than 50 µM, respectively.

As for `Cc1nn(-c2ccccc2)c(C)c1NC(=O)COC(=O)Cc1ccc(C#N)cc1` [compound 46], the half-maximal inhibitory concentration (IC50) in assay [2] (setting [6]) is 29.4 µM; in assay [3] (setting [7]), more than 50 µM; in assay [4] (setting [8]), more than 50 µM.

For `Cc1nn(-c2ccccc2)c(C)c1NC(=O)COC(=O)Cc1ccccc1Br` [compound 48], the half-maximal inhibitory concentration (IC50) in assay [1] (setting [5]), in assay [3] (setting [7]) and in assay [4] (setting [8]) was more than 200 µM each time.

On to `Cc1nn(-c2ccccc2)c(C)c1NC(=O)COC(=O)Cc1ccsc1` [compound 70], for which the IC50 in assay [1] (setting [5]), in assay [3] (setting [7]) and in assay [4] (setting [8]) was more than 200 µM in each case.

Regarding `Cc1[nH]c2ccccc2c1CC(=O)OCC(=O)Nc1ccc(N2CCOCC2)cc1` [compound 76], the half-maximal inhibitory concentration (IC50) in assay [1] (setting [5]), in assay [3] (setting [7]) and in assay [4] (setting [8]) was more than 200 µM in each case.

Consider `Cc1nn(-c2ccccc2)c(C)c1NC(=O)COC(=O)C(C)c1c(C)[nH]c2ccccc12` (stereo not shown) [compound 81], for which the half-inhibitory concentration (IC50) in assay [1] (setting [5]), in assay [3] (setting [7]) and in assay [4] (setting [8]) was more than 200 µM in each case.

Take `Cc1[nH]c2ccccc2c1CC(=O)OCC(=O)Nc1cncnc1` [compound 86]: the results for the IC50 in assay [1] (setting [5]), in assay [3] (setting [7]) and in assay [4] (setting [8]) were 148 µM, 66.1 µM and more than 200 µM, respectively.

Consider `Cc1nn(-c2ccccc2)c(C)c1NC(=O)COC(=O)CCc1c(C)[nH]c2ccccc12` [compound 87], for which the half-maximal inhibitory concentration (IC50) in assay [1] (setting [5]), in assay [3] (setting [7]) and in assay [4] (setting [8]) was more than 200 µM in each case.

One may read the IC50 as the concentration that inhibits the measured activity by half.

The values are drawn from patent EP3305781A1, “CHEMICAL SUBSTANCES WHICH INHIBIT THE ENZYMATIC ACTIVITY OF HUMAN KALLIKREIN-RELATED PEPTIDASE 6 (KLK6)” (Deutsches Krebsforschungszentrum, priority 2016, dated 2018).
